For assay [1], the system named is E. coli JM109. Put plainly: microbe, parasite or virus in culture. Type of assay: cell-based, Escherichia coli. The note with it: for MIC E. coli JM109: Table 3, unit not given (Table 1: μg/mL), median of at least three experiments. The method, then:
(§1) Minimal Inhibitory Concentration (MIC): Stock solutions of polymers (5.00 μL at 2 mg/mL, prepared as described above), commercial synthetic (Ala^8,3,18)-1-magainin-2-amide (Sigma, dissolved in Millipore water to 1 mg/mL, 10.0 μL, as positive control), or solvent blank (5.00 μL) were diluted into brain-heart infusion (BHI) broth in row A of 96-well sterile assay plates (B-D Falcon 35-3075, Fisher Scientific) and seven serial twofold dilutions were performed to give 50 μL of peptide solution (at double the final assay concentration) in each well. Bacterial strains (Escherichia coli JM1O9, Bacillus subtilis BR151,^24 Staphylococcus aureus 5332 (a clinical MRSA isolate from the Weisblum laboratory strain collection), and Enterococcus faecium A436^25) were grown on 2% bacteriological agar in BHI medium. Cells from these cultures were suspended in BHI broth at a concentration of approximately 10^6 colony-forming units (CFU)/mL, and 50 μL of cell suspension was added to each well to give a total of 100 μL in each well.
(§2) Plates were then incubated at 37° C. for 6 h. Bacterial growth gives rise to turbidity and light scattering, which was detected by measuring 0D650 using a Molecular Devices Emax microplate reader connected to a Windows computer running SOFTmax v.2.34. OD650 values from two simultaneous experiments were averaged. […] If an even number of experiments was performed and the two median values were not identical, the geometric mean is reported as the MIC.

Assay [2] relates to S. aureus 5332 (clinical MRSA isolate). In words: microbe, parasite or virus in culture. Type of assay: cell-based, Staphylococcus aureus. The note with it: for MIC S. aureus 5332: Table 3, unit not given (Table 1: μg/mL), median of at least three experiments. The protocol: as §1, §2
For assay [3], the system named is E. faecium A436 (vancomycin-resistant). Put plainly: microbe, parasite or virus in culture. In kind it is cell-based, Enterococcus faecium. The note with it: for MIC E. faecium A436: Table 3, unit not given (Table 1: μg/mL), median of at least three experiments. The protocol: as §1, §2
The subject of the next assay is B. subtilis BR151. In words: microbe, parasite or virus in culture. In kind it is cell-based, Bacillus subtilis. As to conditions: for MIC B. subtilis BR151: Table 3, unit not given (Table 1: μg/mL), median of at least three experiments. The method, then:
as §1, §2

The subject of assay [4] is E. Coli, B. subtilis, methicillin-resistant S. aureus, vancomycin-resistant E. faecium. In words: BHI growth inhibition assay, statements over all four strains. In kind it is cell-based. The note with it: BHI broth, up to 50 μg/mL. The protocol: as §1
Plates were then incubated at 37° C. for 6 h. Bacterial growth gives rise to turbidity and light scattering, which was detected by measuring 0D650 using a Molecular Devices Emax microplate reader connected to a Windows computer running SOFTmax v.2.34. OD650 values from two simultaneous experiments were averaged. […]

Assay [5] relates to E. coli JM109. Put plainly: Minimal Bactericidal Concentration (MBC). Type of assay: cell-based, Escherichia coli. The note with it: Table 2, unit not given; lowest well concentration showing no colonies (>99% killing); plates incubated 4 d. The protocol:
Minimal Bactericidal Concentration (MBC): To determine cell viability, 10 μL from each of the MIC, 2×MIC, and 4×MIC wells (up to the maximum concentration of […]) was diluted 100-fold. Of this, 100 μL (containing at most 5×10^2 CFU) was plated on 2% bacteriological agar in BHI medium and incubated at 37° C. overnight (for B. subtilis) or for 4 d (for E. coli, because no growth was seen after 10 h; colonies appeared on some plates after extended incubation). The absence of colonies was considered indicative of >99% bacterial killing, and the lowest assay well concentration showing no colonies is reported as the MBC.

≈ marks a conversion by molar mass, not a printed value. Where a SMILES comes first, the peptide text is derived from it.

With `C=Cc1ccc(CN(C)C)cc1` [(1) (monomer), 4-(dimethylaminomethyl)-styrene], the MIC was more than 50 mg/L in the assay with E. coli JM109 [1] (Escherichia coli, JM109, BHI broth, 37° C., 6 h, tested up to 50 μg/mL, conservative estimates, read-out: Minimum Inhibitory Concentrations (MIC's) E. coli JM109); more than 50 mg/L in assay [2] (Staphylococcus aureus, MRSA, BHI broth, 37° C., 6 h, tested up to 50 μg/mL, conservative estimates, read-out: Minimum Inhibitory Concentrations (MIC's) S. aureus 5332); more than 50 mg/L in assay [3] (Enterococcus faecium, BHI broth, 37° C., 6 h, tested up to 50 μg/mL, conservative estimates, read-out: Minimum Inhibitory Concentrations (MIC's) E. faecium A436); more than 50 mg/L in the assay with B. subtilis BR151 (Bacillus subtilis, BR151, BHI broth, 37° C., 6 h, tested up to 50 μg/mL, conservative estimates, read-out: Minimum Inhibitory Concentrations (MIC's) B. subtilis BR151). Also, the MIC E. coli JM109 against E. coli JM109 [1] (BHI broth, 37° C., 6 h) is more than 50 mg/L. Moreover, in assay [2] (BHI broth, 37° C., 6 h), the MIC S. aureus 5332 is more than 50 mg/L. The MIC E. faecium A436 in assay [3] (BHI broth, 37° C., 6 h) was more than 50 mg/L. This molecule also came in with an MIC B. subtilis BR151 in the assay with B. subtilis BR151 (BHI broth, 37° C., 6 h) of more than 50 mg/L. For the same molecule, the “growth inhibition / inhibitory activity (in words)” value in assay [4] was “no growth inhibition”.
In the case of `CC[C@H](C)[C@H](NC(=O)CN)C(=O)NCC(=O)N[C@@H](CCCCN)C(=O)N[C@@H](Cc1ccccc1)C(=O)N[C@@H](CC(C)C)C(=O)N[C@@H](Cc1c[nH]cn1)C(=O)N[C@@H](C)C(=O)N[C@@H](C)C(=O)N[C@@H](CCCCN)C(=O)N[C@@H](CCCCN)C(=O)N[C@@H](Cc1ccccc1)C(=O)N[C@@H](C)C(=O)N[C@@H](CCCCN)C(=O)N[C@@H](C)C(=O)N[C@@H](Cc1ccccc1)C(=O)N[C@H](C(=O)N[C@@H](C)C(=O)N[C@@H](CCC(=O)O)C(=O)N[C@H](C(=O)N[C@@H](CCSC)C(=O)N[C@@H](CC(N)=O)C(=O)N[C@@H](CO)C(N)=O)[C@@H](C)CC)C(C)C` [(Ala^8,3,18)-magainin-2-amide] (H-GIGKFLHAAKKFAKAFVAEIMNS-NH2; N-terminus assumed), in the assay on E. coli JM109 [1] (JM109, 6 h), the “Minimum Inhibitory Concentrations (MIC's) E. coli JM109” value came out at 12.5 mg/L. Further, in the assay with E. coli JM109 [1] (BHI broth, 37° C., 6 h), the MIC E. coli JM109 was determined as 12.5 mg/L (≈ 5.04 µM). Also, the “MBC E. coli JM109” value in the assay on E. coli JM109 [5] was 25. Also, the “Minimum Inhibitory Concentrations (MIC's) S. aureus 5332” value in assay [2] (5332 (clinical isolate, 6 h)) turned out to be 12.5 mg/L. This molecule also came in with an MIC S. aureus 5332 in assay [2] (BHI broth, 37° C., 6 h) of 12.5 mg/L (≈ 5.04 µM). Further, in assay [3] (A436 (vancomycin-resistant, 6 h)), the “Minimum Inhibitory Concentrations (MIC's) E. faecium A436” value is 3.2 mg/L. Besides, the MIC E. faecium A436 in assay [3] (BHI broth, 37° C., 6 h) is 3.2 mg/L (≈ 1.29 µM). Also, in the assay with B. subtilis BR151 (BR151, 6 h), the “Minimum Inhibitory Concentrations (MIC's) B. subtilis BR151” value is 6.3 mg/L. The molecule also yielded an MIC B. subtilis BR151 against B. subtilis BR151 (BHI broth, 37° C., 6 h) of 6.3 mg/L (≈ 2.54 µM).

The values above are taken from patent US9034309B2, “Biocidal polymers” (Wisconsin Alumni Research Foundation, priority 2003, dated 2015).
